Earlier results as cited in patent US20030118473A1, “Method and apparatus for ozone decontamination of biological liquids” (priority 2001, published 2003).

Tested on: hepatitis C infection
Conditions: preliminary research on hepatitis C infection; ozone therapy

SMILES: O=[O+][O-] [ozone, Ozone]
- effect on hepatic enzymes (SGOT, SGPT, alkaline phosphatase): significantly normalize hepatic enzymes
